Test results taken from patent publication US12054447B2, “PCNA inhibitors” (City of Hope, priority 2015, dated 2024).
Entries after “also recorded” stand apart in the source; their conditions may differ.

Assays:
[1] = tested on: neuroblastoma cells (SH-SY5Y and SK-N-BE(2)c); experiment: Cell cycle analysis; assay type: cell-based
Procedure: Cells were seeded at 1×10^5/ml in a 6-well plate. Once attached overnight, cells were treated with or without AOH1160 for 6 or 24 h. After being fixed in 60% ethanol and stained with propidium iodide (PI), cells were analyzed by flow cytometry to determine the cellular PI fluorescence intensity. The flow cytometry data were analyzed by the FlowJo program to model various cell populations.

SK-MEL-5 = experiment: NCI-60 panel test; assay type: cell-based; details: Homo sapiens; SK-MEL-5, NCI-60 5-dose study
Procedure: (§1) FIG. 7. NCI-60 panel test. The effect of AOH1160 on growth of the NCI-60 panel, which consists of 60 cancer cell lines representing 9 major cancer types, was tested in a 5-dose study. Shown are the Log IC50 values determined for each cell line. […] This study was performed by the National Institute of Cancer.
(§2) As observed in FIG. 7, the effect of AOH1160 on growth of the NCI-60 panel, which consists of 60 cancer cell lines representing 9 major cancer types, was tested in a 5-dose study. Shown are the Log IC50 values determined for each cell line.

SF-539 = experiment: NCI-60 panel test; assay type: cell-based; details: Homo sapiens; SF-539, NCI-60 5-dose study
Procedure: as §1, §2

HOP-92 = experiment: NCI-60 panel test; assay type: cell-based; details: Homo sapiens; HOP-92, NCI-60 5-dose study
Procedure: as §1, §2

SK-MEL-28 = experiment: NCI-60 panel test; assay type: cell-based; details: Homo sapiens; SK-MEL-28, NCI-60 5-dose study
Procedure: as §1, §2

IGROV1 = experiment: NCI-60 panel test; assay type: cell-based; details: Homo sapiens, IGROV-1; IGROV1, NCI-60 5-dose study
Procedure: as §1, §2

UO-31 = experiment: NCI-60 panel test; assay type: cell-based; details: Homo sapiens; UO-31, NCI-60 5-dose study
Procedure: as §1, §2

OVCAR-8 = experiment: NCI-60 panel test; assay type: cell-based; details: Homo sapiens; OVCAR-8, NCI-60 5-dose study
Procedure: as §1, §2

HCT-15 = experiment: NCI-60 panel test; assay type: cell-based; details: Homo sapiens; HCT-15, NCI-60 5-dose study
Procedure: as §1, §2

HCT-116 = experiment: NCI-60 panel test; assay type: cell-based; details: Homo sapiens; HCT-116, NCI-60 5-dose study
Procedure: as §1, §2

SNB-19 = experiment: NCI-60 panel test; assay type: cell-based; details: Homo sapiens; SNB-19, NCI-60 5-dose study
Procedure: as §1, §2

HS 578T = experiment: NCI-60 panel test; assay type: cell-based; details: Homo sapiens, NCI-60 5-dose study
Procedure: as §1, §2

SF-268 = experiment: NCI-60 panel test; assay type: cell-based; details: Homo sapiens
Procedure: as §1, §2

NCI-H226 = experiment: NCI-60 panel test; assay type: cell-based; details: Homo sapiens; NCI-H226, NCI-60 5-dose study
Procedure: as §1, §2

TK-10 = experiment: NCI-60 panel test; assay type: cell-based; details: Homo sapiens; TK-10, NCI-60 5-dose study
Procedure: as §1, §2

M14 = experiment: NCI-60 panel test; assay type: cell-based; details: Homo sapiens; M14, NCI-60 5-dose study
Procedure: as §1, §2

MDA-MB-435 = experiment: NCI-60 panel test; assay type: cell-based; details: Homo sapiens; MDA-MB-435, NCI-60 5-dose study
Procedure: as §1, §2

HT29 = experiment: NCI-60 panel test; assay type: cell-based; details: Homo sapiens, HT-29; HT29, NCI-60 5-dose study
Procedure: as §1, §2

HL-60(TB) = experiment: NCI-60 panel test; assay type: cell-based; details: Homo sapiens, NCI-60 5-dose study
Procedure: as §1, §2

HCC-2998 = experiment: NCI-60 panel test; assay type: cell-based; details: Homo sapiens; HCC-2998, NCI-60 5-dose study
Procedure: as §1, §2

U251 = experiment: NCI-60 panel test; assay type: cell-based; details: Homo sapiens, U-251; U251, NCI-60 5-dose study
Procedure: as §1, §2

PC-3 = experiment: NCI-60 panel test; assay type: cell-based; details: Homo sapiens; PC-3, NCI-60 5-dose study
Procedure: as §1, §2

EKVX = experiment: NCI-60 panel test; assay type: cell-based; details: Homo sapiens, NCI-60 5-dose study
Procedure: as §1, §2

NCI/ADR-RES = experiment: NCI-60 panel test; assay type: cell-based; details: Homo sapiens, NCI-60 5-dose study
Procedure: as §1, §2

MALME-3M = experiment: NCI-60 panel test; assay type: cell-based; details: Homo sapiens, NCI-60 5-dose study
Procedure: as §1, §2

ACHN = experiment: NCI-60 panel test; assay type: cell-based; details: Homo sapiens, NCI-60 5-dose study
Procedure: as §1, §2

CCRF-CEM = experiment: NCI-60 panel test; assay type: cell-based; details: Homo sapiens, NCI-60 5-dose study
Procedure: as §1, §2

BT-549 = experiment: NCI-60 panel test; assay type: cell-based; details: Homo sapiens; BT-549, NCI-60 5-dose study
Procedure: as §1, §2

SK-OV-3 = experiment: NCI-60 panel test; assay type: cell-based; details: Homo sapiens; SK-OV-3, NCI-60 5-dose study
Procedure: as §1, §2

OVCAR-4 = experiment: NCI-60 panel test; assay type: cell-based; details: Homo sapiens; OVCAR-4, NCI-60 5-dose study
Procedure: as §1, §2

RPMI-8226 = experiment: NCI-60 panel test; assay type: cell-based; details: Homo sapiens; RPMI-8226, NCI-60 5-dose study
Procedure: as §1, §2

RXF 393 = experiment: NCI-60 panel test; assay type: cell-based; details: Homo sapiens; RXF 393, NCI-60 5-dose study
Procedure: as §1, §2

OVCAR-5 = experiment: NCI-60 panel test; assay type: cell-based; details: Homo sapiens; OVCAR-5, NCI-60 5-dose study
Procedure: as §1, §2

Liver microsome assay = assay type: in vitro ADME, human
Source text: FIG. 11. AOH1160 stability in a liver microsome assay. Liver is a major organ responsible for drug metabolism. We tested the stability of AOH1160 in a liver microsome assay. By analyzing the metabolites, we determined a major pathway responsible for AOH1160 metabolism.
Liver is a major organ responsible for drug metabolism. We tested the stability of AOH1160 in a liver microsome assay (FIG. 11). By analyzing the metabolites, we determined a major pathway responsible for AOH1160 metabolism.

Compound	GI50 (SK-MEL-5) [nM]	GI50 (SF-539) [nM]	GI50 (HOP-92) [nM]	GI50 (SK-MEL-28) [nM]	GI50 (IGROV1) [nM]	GI50 (UO-31) [nM]	GI50 (OVCAR-8) [nM]	GI50 (HCT-15) [nM]	GI50 (HCT-116) [nM]	GI50 (SNB-19) [nM]	GI50 (HS 578T) [nM]	GI50 (SF-268) [nM]	GI50 (NCI-H226) [nM]	GI50 (TK-10) [nM]	GI50 (M14) [nM]	GI50 (MDA-MB-435) [nM]	GI50 (HT29) [nM]	GI50 (HL-60(TB)) [nM]	GI50 (HCC-2998) [nM]	GI50 (U251) [nM]	other results
O=C(CNC(=O)c1cccc2ccccc12)Nc1ccccc1Oc1ccccc1 [AOH1160]	263	240	2240	813	912	646	316	245	324	457	363	437	2190	617	275	42.7	288	269	708	331	cell cycle effect [1]: caused S/G2 cell cycle arrest; GI50 (PC-3): 302 nM; GI50 (EKVX): 776 nM; GI50 (NCI/ADR-RES): 240 nM; GI50 (MALME-3M): 10000 nM; GI50 (ACHN): 832 nM; GI50 (CCRF-CEM): 347 nM; GI50 (BT-549): 407 nM; GI50 (SK-OV-3): 398 nM; GI50 (OVCAR-4): 4570 nM; GI50 (RPMI-8226): 316 nM; GI50 (RXF 393): 186 nM; GI50 (OVCAR-5): 525 nM; metabolic pathway in liver microsomes (Liver microsome assay; human liver microsomes, NADPH): mainly metabolized through mono- and di-hydroxylation in a NADPH-dependent manner
O=C(CNC(=O)c1cccc2ccccc12)Nc1ccccc1Oc1ccc(O)cc1 [PCNA1]	25100	692	25100	851	2340	1780	1320	912	977	1410	1350	3310	4790	17000	692	162	1000	708	8910	1410	GI50 (PC-3): 1320 nM; GI50 (EKVX): 1170 nM; GI50 (NCI/ADR-RES): 1200 nM; GI50 (ACHN): 1860 nM; GI50 (CCRF-CEM): 933 nM; GI50 (BT-549): 1620 nM; GI50 (SK-OV-3): 1580 nM; GI50 (OVCAR-4): 2820 nM; GI50 (RPMI-8226): 977 nM; GI50 (RXF 393): 501 nM; GI50 (OVCAR-5): 6310 nM
O=C(CNC(=O)c1cccc2ccccc12)Nc1ccccc1Oc1cccc(O)c1 [PCNA2]	25100	4070	25100	1860	10000	16600	11500	3160	1380	8710	5750	20900	25100	25100	1550	759	21400	1320	25100	8320	GI50 (PC-3): 7080 nM; GI50 (EKVX): 8910 nM; GI50 (NCI/ADR-RES): 7940 nM; GI50 (MALME-3M): 5890 nM; GI50 (ACHN): 17400 nM; GI50 (CCRF-CEM): 4170 nM; GI50 (BT-549): 25100 nM; GI50 (SK-OV-3): 12900 nM; GI50 (OVCAR-4): 25100 nM; GI50 (RPMI-8226): 8130 nM; GI50 (RXF 393): 4170 nM; GI50 (OVCAR-5): 25100 nM
COc1ccc(Oc2ccccc2NC(=O)CNC(=O)c2cccc3ccccc23)cc1 [PCNA6]	25100	575	25100	380	1580	1480	1150	589	617	1230	1700	2040	4270	2140	550	83.2	575	617	1410	1050	GI50 (PC-3): 1050 nM; GI50 (EKVX): 1380 nM; GI50 (NCI/ADR-RES): 427 nM; GI50 (MALME-3M): 25100 nM; GI50 (ACHN): 1510 nM; GI50 (CCRF-CEM): 912 nM; GI50 (BT-549): 1120 nM; GI50 (SK-OV-3): 1020 nM; GI50 (OVCAR-4): 2240 nM; GI50 (RPMI-8226): 1120 nM; GI50 (RXF 393): 490 nM; GI50 (OVCAR-5): 2000 nM
COc1cccc(Oc2ccccc2NC(=O)CNC(=O)c2cccc3ccccc23)c1 [PCNA7/ AOH1996]	219	224	204	4370	1050	1820	692	129	95.5	617	380	550	2510	1580	158	70.8	110	81.3	1260	240	cell cycle effect [1]: caused S/G2 cell cycle arrest; GI50 (PC-3): 282 nM; GI50 (EKVX): 1290 nM; GI50 (NCI/ADR-RES): 240 nM; GI50 (MALME-3M): 17000 nM; GI50 (ACHN): 398 nM; GI50 (CCRF-CEM): 363 nM; GI50 (BT-549): 295 nM; GI50 (SK-OV-3): 490 nM; GI50 (OVCAR-4): 776 nM; GI50 (RPMI-8226): 955 nM; GI50 (RXF 393): 166 nM; GI50 (OVCAR-5): 1120 nM; stability in a liver microsome assay (Liver microsome assay; NADPH dependent metabolism): stable to NADPH dependent metabolism; also recorded: stable in a liver microsome assay
